Laboratory results reported in patent publication US20080181971A1, “Combination Cancer Treatments Comprising Elsamitrucin and Other Agents” (priority 2007, published 2008).
“And” between values parts separate entries of the source, which are not always exact repeats. Equal entries are not always repeated. Where two headings read alike, the source gives them in different places.

Key:
Format in all cases: cell-based
[1] = tested on: HT29 human colon carcinoma cell line; test: MTT growth inhibition assay, single agents and fixed-ratio combinations with elsamitrucin (Chou-Talalay, CalcuSyn), HT29
Procedure: (§1) These individual agents and their combinations were evaluated for in vitro activity against the HT29 colon carcinoma, SKMES non-small cell lung carcinoma, and Daudi B-lymphoblastic cell lines. Cell growth in 96-well microculture plates was determined with a semi-automated MTT assay. Efficacies of drug combinations were analyzed according to the methods of Chou and Talalay, utilizing CalcuSyn software. Twenty-one in vitro experiments were conducted to determine the individual and combined growth inhibitory activities of elsamitrucin and the ten selected agents in the three cell lines.
(§2) b. Cell Lines. The human HT29 colon carcinoma, SKMES non-small cell lung carcinoma, and Daudi B-lymphoblastic cell lines were originally obtained from ATCC (American Type Culture Collection). These cell lines have been maintained and stored as frozen stocks. […] The medium for Daudi cells was additionally supplemented with 1 mM sodium pyruvate.
(§3) c. Growth Inhibition Assay. Anti-proliferative activities against the HT29, SKMES, and Daudi cell lines were evaluated in vitro by the MTT assay. Cells (1,500-2,000 cells/well) were seeded in a 96-well microculture plate in 180 pL of medium/well. […] DMSO was present in all wells at a final concentration of 0.1%. […] When the appropriate cell density was attained in the control wells, the plates were centrifuged briefly, and 100 pL of the growth medium was removed. The cell cultures were incubated with 50 μL of MTT reagent (1 mg/mL in Dulbecco's phosphate-buffered saline) for 4 hr at 37° C. The resultant purple formazan precipitate was solubilized with 200 μL of 0.04 N HCl in isopropanol.
(§4) The results of each experiment were stored in Excel format.
(§5) d. Preliminary Experiments: Design and Data Analysis. […] The initial experiments utilized serial three-fold dilutions of the drugs to produce ten test concentrations over a broad concentration range. Based on the initial results, a narrower concentration range was selected, and serial 1:1.5 dilutions were utilized to produce ten test concentrations. Experiments were repeated as needed.
(§6) For assays that utilized lower dilution factors to produce narrower concentration ranges, the results were analyzed with both Prism and CalcuSyn (as described below) to allow comparison of the IC50 and Da, values. The results guided the selection of appropriate concentration ranges and concentration ratios for the combination experiments.
(§7) e. Combination Experiments: Design and Data Analysis. The fixed-ratio design of Chou was used for the combination experiments. For each experiment, the drug solutions were mixed at a ratio that was expected to provide approximately equipotent concentrations, and the mixture was serially diluted with medium containing 1% DMSO to yield 10× stock solutions of the test concentrations. […] Each agent was tested individually and in combination at seven concentrations. The concentration range selected for each assay was designed to bracket the concentrations that produced half-maximal effects (ED50) with each single agent and their mixture. The concentrations used for the single-drug assays were twice as high as their concentrations in the mixture. Each assay was performed in quadruplicate. For each drug combination, the individual agents and their mixture were assayed on the same 96-well plate. The effects of the individual drugs and their combinations were analyzed by the method of Chou and Talalay. The results of each experiment were entered into CalcuSyn (BIOSOFT) for dose-effect analysis.
(§8) where Acontrol and Adrug are the respective absorbances of vehicle control and drug-treated wells in the MIT assay.
(§9) where the slope, m, is related to the sigmoidicity of the dose-effect curve, with m=1, >1, and <1 indicating hyperbolic, sigmoidal, and reverse sigmoidal shapes, respectively.

[2] = tested on: SKMES human non-small cell lung carcinoma cell line; test: MTT growth inhibition assay, single agents and fixed-ratio combinations with elsamitrucin (Chou-Talalay, CalcuSyn), SKMES
Procedure: as §1, §2, §3, §4, §5, §6, §7, §8, §9

[3] = tested on: Daudi human lymphoma cell line; test: MTT growth inhibition assay, single agents and fixed-ratio combinations with elsamitrucin (Chou-Talalay, CalcuSyn), Daudi
Procedure: as §1, §2, §3, §4, §5, §6, §7, §8, §9

[4] = Homo sapiens, HT-29, SPA-01 (HT29-e21), single agent, dilution 1:3, read-out: Prism IC50
[5] = Homo sapiens, HT-29, SPA-04 (HT29-e22), single agent, dilution 1:1.5, read-out: CalcuSyn Dm
[6] = Homo sapiens, HT-29, SPA-04 (HT29-e22), single agent, dilution 1:1.5, read-out: Prism IC50
[7] = Homo sapiens, HT-29, average of preliminary single-agent experiments, HT29, read-out: Average IC50, Dm value
[8] = Homo sapiens, SPA-02 (SKMES-e22), single agent, dilution 1:3, read-out: Prism IC50
[9] = Homo sapiens, SPA-03 (SKMES-e23), single agent, dilution 1:1.5, read-out: CalcuSyn Dm
[10] = Homo sapiens, SPA-03 (SKMES-e23), single agent, dilution 1:1.5, read-out: Prism IC50
[11] = Homo sapiens, average of preliminary single-agent experiments, SKMES, read-out: Average IC50, Dm value
[12] = Homo sapiens, Daudi, SPA-05 (Daudi-e01), single agent, dilution 1:3, read-out: Prism IC50
[13] = Homo sapiens, Daudi, average of preliminary single-agent experiments, Daudi, read-out: Average IC50, Dm value

CC(=O)O[C@H]1C(=O)[C@@]2(C)[C@H]([C@H](OC(=O)c3ccccc3)[C@]3(O)C[C@H](OC(=O)[C@H](O)[C@@H](NC(=O)c4ccccc4)c4ccccc4)C(C)=C1C3(C)C)[C@]1(OC(C)=O)CO[C@@H]1C[C@@H]2O [Paclitaxel, paclitaxel]
IC50 ([1]; Homo sapiens, HT-29, HT29, single agent on the same plate as the combination, read-out: Dm Value, Individually, Second Agent): 3.2 nM | IC50 [1, 4]: 1.6 nM | IC50 [1, 5]: 2.3 nM | IC50 [1, 6]: 2.4 nM | IC50 [1, 7]: 2 nM | IC50 ([2]; Homo sapiens, SKMES growth inhibition, second agent alone, one value per plate (Experiment ID), read-out: Dm Value (95% Confidence Interval), Individually, Second Agent): 3.5 nM | IC50 ([2]; Homo sapiens, SKMES, single agent on the same plate as the combination, read-out: Dm Value, Individually, Second Agent): 3.5 nM | IC50 [2, 8]: 1.1 nM | IC50 [2, 9]: 2.8 nM | IC50 [2, 10]: 2.6 nM | IC50 [2, 11]: 2 nM | IC50 ([3]; Homo sapiens, Daudi, Daudi growth inhibition, second agent alone, one value per plate, Table 8 (Supplement), read-out: Dm Value (95% Confidence Interval), Individually, Second Agent): 4 nM | IC50 ([3]; Homo sapiens, Daudi, Daudi growth inhibition, second agent alone, Table 8, read-out: Dm Value (95% Confidence Interval), Individually, Second Agent): 4 nM | IC50 [3, 12]: 3.6 nM | IC50 ([3]; Homo sapiens, Daudi, SPA-08 (Daudi-e02), single agent, dilution 1:1.5, read-out: CalcuSyn Dm): 4.1 nM | IC50 ([3]; Homo sapiens, Daudi, SPA-08 (Daudi-e02), single agent, dilution 1:1.5, read-out: Prism IC50): 3.3 nM | IC50 [3, 13]: 4 nM | IC50 ([3]; Homo sapiens, Daudi, read-out: approximate Dm values for the second drugs as single agents): ~4 nM

N.N.[Cl][Pt][Cl] [Cisplatin, cisplatin]
decrease of Dm in the combination ([1]; HT29, in combination with elsamitrucin versus single agent): 38% | IC50 ([1]; HT29, single agent on the same plate as the combination, read-out: Dm Value, Individually, Second Agent): 2330 nM and 1750 nM | IC50 ([1]; SPA-01 (HT29-e21), single agent, dilution 1:3, read-out: Prism IC50): 1850 nM | IC50 ([1]; SPA-04 (HT29-e22), single agent, dilution 1:1.5, read-out: CalcuSyn Dm): 1930 nM | IC50 ([1]; SPA-04 (HT29-e22), single agent, dilution 1:1.5, read-out: Prism IC50): 1860 nM | IC50 ([1]; average of preliminary single-agent experiments, HT29, read-out: Average IC50, Dm value): 1880 nM | IC50 ([2]; SKMES growth inhibition, second agent alone, one value per plate (Experiment ID), read-out: Dm Value (95% Confidence Interval), Individually, Second Agent): 1670 nM | decrease of Dm in the combination ([2]; SKMES, in combination with elsamitrucin versus single agent): 47% | IC50 ([2]; SKMES, single agent on the same plate as the combination, read-out: Dm Value, Individually, Second Agent): 1670 nM | IC50 ([2]; SPA-02 (SKMES-e22), single agent, dilution 1:3, read-out: Prism IC50): 675 nM | IC50 ([2]; SPA-03 (SKMES-e23), single agent, dilution 1:1.5, read-out: CalcuSyn Dm): 1180 nM | IC50 ([2]; SPA-03 (SKMES-e23), single agent, dilution 1:1.5, read-out: Prism IC50): 1140 nM | IC50 ([2]; average of preliminary single-agent experiments, SKMES, read-out: Average IC50, Dm value): 1000 nM | IC50 ([3]; Daudi growth inhibition, second agent alone, one value per plate, Table 8 (Supplement), read-out: Dm Value (95% Confidence Interval), Individually, Second Agent): 494 nM | IC50 ([3]; Daudi growth inhibition, second agent alone, Table 8, read-out: Dm Value (95% Confidence Interval), Individually, Second Agent): 494 nM | decrease of Dm in the combination ([3]; Daudi, in combination with elsamitrucin versus single agent): 59% | IC50 ([3]; Daudi, read-out: approximate Dm values for the second drugs as single agents): ~490 nM | IC50 ([3]; SPA-05 (Daudi-e01), single agent, dilution 1:3, read-out: Prism IC50): 367 nM | IC50 ([3]; SPA-08 (Daudi-e02), single agent, dilution 1:1.5, read-out: CalcuSyn Dm): 343 nM | IC50 ([3]; SPA-08 (Daudi-e02), single agent, dilution 1:1.5, read-out: Prism IC50): 344 nM | IC50 ([3]; average of preliminary single-agent experiments, Daudi, read-out: Average IC50, Dm value): 351 nM

CO[C@@H]1[C@@H](N)[C@@H](O[C@H]2[C@H](Oc3cccc4c(O)c5c(=O)oc6ccc(C)c7c(=O)oc(c34)c5c67)O[C@H](C)[C@H](O)[C@]2(C)O)O[C@H](C)[C@@H]1O [Elsamitrucin, benzo(h)(1)benzopyrano(5,4,3-cde)(1)ebnzopyran-5,12-dione,10((2-O-(2-amino-2,6-dideoxy-3-O-methyl-alpha-D-galactopyranosyl)-6-deoxy-3-C-methyl-beta-D-galactopyranosyl)oxy)-6-hydroxy-1-methyl]
IC50 ([1]; HT29, single agent on the same plate as the combination, read-out: Dm Value, Individually, Elsamitrucin): 36 nM and 118 nM and 96 nM and 58 nM and 54 nM and 67 nM and 39 nM and 40 nM and 103 nM and 51 nM and 37 nM and 29 nM and 86 nM and 73 nM and 50 nM and 71 nM and 124 nM and 32 nM and 27 nM | IC50 ([1]; Homo sapiens, HT-29, HT29, Table 1, read-out: average Dm determined in the preliminary experiments): 77 nM | IC50 ([1]; Homo sapiens, HT-29, HT29, single agent, ten selected assays of Table 2, read-out: average Dm): 63 nM | IC50 ([1]; Homo sapiens, HT-29, HT29, single agent, ten selected assays of Table 2, read-out: range of Dm): 36 to 118 nM | IC50 ([1]; Homo sapiens, HT-29, HT29 cells, single agent, read-out: average Dm): 63 nM | IC50 [1, 4]: 80 nM | IC50 [1, 5]: 81 nM | IC50 [1, 6]: 70 nM | IC50 [1, 7]: 77 nM | IC50 ([2]; Homo sapiens, SKMES cells, single agent, read-out: average Dm): 22 nM | IC50 ([2]; Homo sapiens, SKMES, single agent, ten assays of Table 5, read-out: average Dm): 22 nM | IC50 ([2]; Homo sapiens, SKMES, single agent, ten assays of Table 5, read-out: range of Dm): 11 to 53 nM | IC50 [2, 8]: 12 nM | IC50 [2, 9]: 25.6 nM | IC50 [2, 10]: 24.4 nM | IC50 [2, 11]: 21 nM | IC50 ([3]; Daudi growth inhibition, elsamitrucin alone, one value per plate, Table 8 (Supplement), read-out: Dm Value (95% Confidence Interval), Individually, Elsamitrucin): 23 nM and 30 nM and 28 nM and 15 nM and 13 nM and 34 nM and 26 nM | IC50 ([3]; Daudi growth inhibition, elsamitrucin alone, one value per plate, Table 8, read-out: Dm Value (95% Confidence Interval), Individually, Elsamitrucin): 30 nM and 28 nM and 13 nM and 34 nM and 26 nM and 23 nM | IC50 [3, 12]: 12 nM | IC50 ([3]; Homo sapiens, Daudi, SPA-15 (Daudi-e03), single agent, dilution 1:1.5 (elsamitrucin 1:1.33), read-out: CalcuSyn Dm): 46 nM | IC50 ([3]; Homo sapiens, Daudi, SPA-15 (Daudi-e03), single agent, dilution 1:1.5 (elsamitrucin 1:1.33), read-out: Prism IC50): 40 nM | IC50 [3, 13]: 33 nM | IC50 ([3]; Homo sapiens, Daudi, single agent, ten assays of Table 8, read-out: average Dm): 27 nM | IC50 ([3]; Homo sapiens, Daudi, single agent, ten assays of Table 8, read-out: range of Dm): 13 to 34 nM
